Read-outs that look alike come from different tables or passages of the source. Positions of bridges follow the written chain, without caps; N, C: chain ends. Residues, ends and D or L forms follow the SMILES beside them. No end group written: not given here.
Key:
[1] = test system: BSC-1 cells infected with vaccinia virus; format: cell-based, Cercopithecus monkey; settings: AraC from after the 1 hr adsorption period; 13 and 24 hr post infection
[2] = test system: anti-KLH-peptide 1 IgG; test: Solid phase RIA, anti-KLH-peptide 1 IgG on BSA-peptide 1 conjugate; format: binding, rabbit
Description: (1979) J. Immunol. Methods 28, pp. 201-206). Carrier-peptide complexes were purified by gel filtration. […] Rabbits were boosted s.c. every two weeks with the immunogen in incomplete Freund's adjuvant. The IgG fraction of the antiserum after 5 boosts was used for immunoassays and radiolabeled using Na^125 I (NEN) and Enzymobeads (Bio-Rad) to 4×10^5 cpm/μg protein. […] Plates were incubated for 4 hours at 37° C. with [^125 I]anti-KLH-peptide 1 IgG (50,000 cpm/well) in the presence or absence of inhibitors, washed and individual wells were counted.

[3] = molecular target: T1, EGF receptors on A-431 human epidermoid carcinoma cells (Homo sapiens, UniProt P00533); test: [125I]EGF radioreceptor assay on A-431 cells; format: binding
T1 construct: Human epidermoid carcinoma A431 cells have in excess of 10^6 EGF receptors per cell; endogenous in cells; host or cells: A431 human epidermoid carcinoma cells
Description: A-431 human epidermoid carcinoma cells or human foreskin fibroblasts (HFF), established from primary cultures, were grown to confluence in 24-well cluster dishes (Costar) in Dulbecco's minimal essential medium (DMEM, Gibco) containing 10% fetal calf serum (FCS, Hyclone). EGF was radio-iodinated as above to between 4×10^4 and 8×10^4 cpm/ng protein. Cells were incubated at 4° C. for 60 minutes with 1 nM [^125 I]EGF in the presence of inhibitor peptides in DMEM (pH 7.4; 20 mM Hepes) containing 0.1% BSA. Cells were washed 3× with cold buffer, lysed with 0.1N NaOH, and cell-associated radioactivity was measured (γ-counter). Nonspecific binding assessed in the presence of a 100x excess of cold EGF was less than 5% and 10% of the specific binding for A-431 and HFF cells, respectively.

[4] = test system: quiescent HFF; test: Cell proliferation assay, [3H]methyl-thymidine incorporation; format: cell-based, human
Description: HFF cells were grown to confluence in 48-well cluster dishes in DMEM-10% FCS and brought to quiescence by starvation for 2 days in DMEM-0.5% FCS. Mitogens and peptides were incubated with cells at 37° C. for 18 hours prior to a 4 hour pulse with 1 μCi [^3 H]methyl-thymidine (NEN) and trichloroacetic acid precipitable radioactivity was determined.

[5] = test system: antiserum directed against peptide III; test: Competitive radioimmunoassay with 125I-peptide III; format: binding, rabbit; settings: for Relative Inhibitory Activity: half-maximal inhibitory concentration relative to peptide III, standard RIA; for effectiveness as inhibitor of precipitation of 125I-peptide III: relative to peptide III
Description: Reactants were mixed in a final volume of 50 microliters of a solution containing: 20 mM sodium phosphate, at pH 7.4; 200 mM NaCl; 40 mM dithiothreitol; 0.1% (w:v) BSA; 0.1% (w:v) NaN3; ^125 I-peptide III; (10^4 cpm); antiserum at a final dilution of 1/15,000; and other additions, as specified. The reaction was initiated by the addition of antiserum and continued at 23° C. for 90 minutes. An equal volume of 10% formalin-fixed Staphalococcus A (Pansorbin, Calbiochem) was then added and incubation was continued for an additional 30 minutes at 23° C. The immunoadsorbant was removed by sedimentation through a cushion of 10% (w:v) sucrose and the amount of bound ^125 I-peptide III was determined using a gamma counter.

[6] = molecular target: T2, EGF receptors on A431 cells (Homo sapiens, UniProt P00533); test: Binding of 125I-labeled rat TGF to A431 cells
T2 construct: Human epidermoid carcinoma A431 cells have in excess of 10^6 EGF receptors per cell; endogenous in cells; host or cells: A431 human epidermoid carcinoma cells
Description: was synthesized using the solid-phase technique of Ohgak et al. (1983) Journal of Immunol. Meth. 57, pp. 171-184. This oligopeptide was then coupled to keyhole limpet hemocyanin in accordance with the procedure of Baron et al. (1982) Cell 28, pp. 395-404, and used to immunize rabbits (Baron et al. (1982) Cell 28, pp. 395-404) and sheep (Lerner (1982) Nature 299, pp. 592-596). Antisera were assayed against peptide by a peroxidase-linked immunoassay (Kirkegaard and Perry Laboratories, Gaithersberg, Md.) and against homogeneous rat TGF (purified according to Example II above), by immunoprecipitation (Bister et al. (1980) J. Virol. 36, pp. 617-621) and Western blotting techniques (Burnett (1981) Analyt. Biochem. 112, pp. 195-203). Binding of ^125 I-labeled rat TGF and mouse EGF (Bethesda Research Labs, Bethesda, Md.) to A431 cells grown in 96-well microtiter plates was as described in Pross et al. (1977) Proc. Natl. Acad. Sci. USA 74, pp. 3918-3921.
Human epidermoid carcinoma A431 cells have in excess of 10^6 EGF receptors per cell (Fabricant et al. (1977) Proc. Natl. Acad. Sci. USA 74, pp. 565-569). TGF competes with EGF for binding to these receptors. Binding of ^125 I-labeled rat TGF to these cells was blocked by an excess of unlabeled EGF and by antiserum to peptide. […]

Nc1ccn([C@@H]2O[C@H](CO)[C@@H](O)[C@@H]2O)c(=O)n1 [AraC, cytosine arabinoside]
VGF production relative to infected control cultures [1]: enhanced more than two-fold

CC(C)[C@@H]1NC(=O)CNC(=O)[C@H](C(C)C)NC(=O)[C@H](Cc2ccc(O)cc2)NC(=O)CNC(=O)[C@H](CO)NC(=O)[C@H](Cc2c[nH]cn2)NC(=O)[C@@H](N)CSSC[C@@H](C(=O)O)NC(=O)[C@H](CCCNC(=N)N)NC1=O [Peptide 1] (H-CHSGYVGVRC-OH; disulfide 1-10)
inhibition of reaction of anti-KLH-peptide 1 antibodies with BSA-TGF peptide [2]: inhibited in a concentration-dependent fashion
concentration giving partial inhibition of [125I]EGF binding [3]: > 10^-6 M
IC50 ([4]; induced by 1 nM of EGF, read-out: Inhibition of Mitogenesis IC50 (M) EGF): > 1e-05 M
IC50 ([4]; induced by 1 nM of TGFα, read-out: Inhibition of Mitogenesis IC50 (M) TGFα): > 1e-05 M

CC(=O)N[C@H]1CSSC[C@@H](C(N)=O)NC(=O)[C@H](CCCNC(=N)N)NC(=O)[C@H](C(C)C)NC(=O)CNC(=O)[C@H](C(C)C)NC(=O)[C@H](Cc2ccc(O)cc2)NC(=O)CNC(=O)[C@H](CO)NC(=O)[C@H](Cc2c[nH]cn2)NC1=O [Peptide 2] (Ac-CHSGYVGVRC-NH2; disulfide 1-10)
binding potency relative to EGF or TGF-α [3]: approximately 0.02%

Ac-Cys-His-Ser-Gly-Tyr-Val-Gly-Ala-Arg-Cys-OMe (Ac-CHSGYVGARC-OMe; disulfide 1-10 (inferred)) [Peptide 3, methyl ester of the corresponding loop of hTGF]
binding potency relative to EGF or TGF-α [3]: ~0.2%

CHSGYVGVRC (cysteine pairing not given here) [Peptide II]
Relative Inhibitory Activity [5]: > 1500

CHSGYVGVRCEHADLLA (cysteine pairing not given here) [Peptide III]
Relative Inhibitory Activity [5]: 1
IC50 ([5]; read-out: concentration producing half-maximal inhibition of precipitation of 125I-peptide III): 0.0007 µM

EGF: mouse submaxillary gland epidermal growth factor [reference compound]
blocking of 125I-labeled rat TGF binding to A431 cells [6]: blocked
highest concentration without competition in RIA [5]: greater than 1 μM
Relative Inhibitory Activity [5]: > 1500
inhibition of reaction of anti-KLH-peptide 1 antibodies with BSA-TGF peptide [2]: did not cause significant inhibition

VGVRCEHADLLA [Peptide IV]
Relative Inhibitory Activity [5]: 3.5
effectiveness as inhibitor of precipitation of 125I-peptide III [5]: only slightly less effective

VVSHFNKCPDSHT [Peptide I]
Relative Inhibitory Activity [5]: > 1500
effectiveness as inhibitor of precipitation of 125I-peptide III [5]: ineffective

Reference: patent US5240912A, “Transforming growth factor (TGF) peptides” (priority 1991, dated 1993)
